The record followed here is doi:10.1101/2025.10.06.680810v1 (biorxiv, 2025).

The experiment concerns the target NLRP3 (purified) (Homo sapiens, UniProt Q96P20, K138A/K142A/R137C). Put plainly: fluorescence polarization displacement. It counts as binding. Background: Polarisation of emitted light reports the rotation of a fluorescent probe.

Sequence of NLRP3 (purified) (Q96P20 136-1034 R137C/K138A/K142A): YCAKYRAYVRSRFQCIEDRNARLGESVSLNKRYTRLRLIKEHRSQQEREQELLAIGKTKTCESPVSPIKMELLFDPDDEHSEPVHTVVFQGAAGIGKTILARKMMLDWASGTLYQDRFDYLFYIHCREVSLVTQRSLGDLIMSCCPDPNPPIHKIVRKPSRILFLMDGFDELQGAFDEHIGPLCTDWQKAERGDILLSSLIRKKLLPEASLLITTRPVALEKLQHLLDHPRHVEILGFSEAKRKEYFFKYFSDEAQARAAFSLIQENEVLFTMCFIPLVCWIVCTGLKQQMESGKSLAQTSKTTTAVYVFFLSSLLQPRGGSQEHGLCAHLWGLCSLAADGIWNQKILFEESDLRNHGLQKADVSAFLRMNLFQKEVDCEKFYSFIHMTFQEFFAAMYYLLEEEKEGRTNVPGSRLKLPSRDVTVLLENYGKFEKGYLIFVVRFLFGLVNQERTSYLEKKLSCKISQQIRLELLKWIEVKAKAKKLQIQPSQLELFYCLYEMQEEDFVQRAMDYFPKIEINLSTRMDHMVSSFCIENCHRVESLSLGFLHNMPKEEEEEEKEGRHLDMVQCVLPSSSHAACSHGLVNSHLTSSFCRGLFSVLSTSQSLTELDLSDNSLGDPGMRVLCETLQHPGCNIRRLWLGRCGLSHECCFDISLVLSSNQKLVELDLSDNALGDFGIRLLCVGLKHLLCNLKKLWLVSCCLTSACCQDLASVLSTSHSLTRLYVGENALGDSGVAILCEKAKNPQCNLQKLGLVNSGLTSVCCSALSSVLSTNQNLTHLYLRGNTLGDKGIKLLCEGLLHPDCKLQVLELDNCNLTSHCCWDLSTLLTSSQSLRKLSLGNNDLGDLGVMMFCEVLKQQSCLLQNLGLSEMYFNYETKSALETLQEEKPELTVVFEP

Turning to `O=C(CN1C[C@@H](C(F)(F)F)c2cc(I)ccc2C1=O)Nc1ncc(F)cn1` [TN-783, N-(5-fluoropyrimidin-2-yl)-2-[(4s)-6-iodo-1-oxo-4-(trifluoromethyl)-3,4-dihydroisoquinolin-2-yl]acetamide], the IC50 (as a rule, the concentration needed to halve the response being measured) amounted to 19.3 ± 2.2 nM.
